Test results reported in patent US9815787B2, “Sulfonamide derivative or pharmaceutically acceptable acid addition salt thereof” (UNIVERSITY OF TSUKUBA, priority 2013, dated 2017).

Target: T1, OX2R (Homo sapiens, UniProt O43614)
T1 construct: expressed in transfected cells; host or cells: CHO (Chinese hamster ovary) cells constitutively expressing the OX2R gene and NFAT-luciferase (CHOOX2R)
T1 sequence (O43614 1-444): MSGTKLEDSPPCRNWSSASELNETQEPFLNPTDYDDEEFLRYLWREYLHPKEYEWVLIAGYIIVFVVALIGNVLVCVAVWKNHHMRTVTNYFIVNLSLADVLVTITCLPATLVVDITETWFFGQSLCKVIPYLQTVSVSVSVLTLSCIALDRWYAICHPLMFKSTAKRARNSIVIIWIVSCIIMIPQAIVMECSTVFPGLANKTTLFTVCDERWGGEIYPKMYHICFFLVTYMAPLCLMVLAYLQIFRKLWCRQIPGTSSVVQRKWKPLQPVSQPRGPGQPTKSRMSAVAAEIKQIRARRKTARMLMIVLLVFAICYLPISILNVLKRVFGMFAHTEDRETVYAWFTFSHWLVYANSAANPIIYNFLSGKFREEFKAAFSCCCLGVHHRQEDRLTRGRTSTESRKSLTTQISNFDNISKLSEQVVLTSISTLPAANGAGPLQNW
Test: Evaluation of agonist activity against OX2R (CHOOX2R cells, Fura2AM fluorescence, FDSS3000)
Type: cell-based
Procedure: Evaluation of Agonist Activity Against OX2R
NFAT-luciferase gene and OX2R gene were each constitutively expressed in CHO cell, which is a cell line derived from Chinese hamster ovary to establish a cell line (CHOOX2R). The cells thereof were sown on a 96 well plate at 10000 cells/well, and cultured in a 5% FBS-added DMEM medium for 48 hr. […] After washing, HEPES buffer (75 μL) was added, a test compound solution (25 μL) was added, and changes in the fluorescence intensity were measured by FDSS3000 (Hamamatsu Photonics K.K.). The test compound was dissolved in DMSO (final concentration of DMSO was 1%), and diluted with HEPES buffer to a final concentration of 0.1 μM, 1.0 μM or 10 μM.

[1] = OX2R agonist activity; CHOOX2R cells
[2] = conversion with orexin-A as full agonist (maximum agonist activity 100%)
[3] = test compound 0.1 μM; CHOOX2R cells; relative to orexin-A as full agonist (100%)
[4] = test compound 1.0 μM; CHOOX2R cells; relative to orexin-A as full agonist (100%)
[5] = test compound 10 μM; CHOOX2R cells; relative to orexin-A as full agonist (100%)
[6] = test compound 0.1 μM; relative to orexin-A as full agonist (100%); CHOOX2R cells
[7] = test compound 1.0 μM; relative to orexin-A as full agonist (100%); CHOOX2R cells
[8] = test compound 10 μM; relative to orexin-A as full agonist (100%); CHOOX2R cells

| SMILES | EC50 [1] [nM] | Emax [2] [%] | Response (0.1 μM (%)) [3] [%] | Response (1.0 μM (%)) [4] [%] | Response (10 μM (%)) [5] [%] | Response (0.1 μM (%)) [6] [%] | Response (1.0 μM (%)) [7] [%] | Response (10 μM (%)) [8] [%] |
| --- | --- | --- | --- | --- | --- | --- | --- | --- |
| COc1ccc(-c2cccc(C(=O)N(C)C)c2)cc1S(=O)(=O)Nc1cccc(NCCNC(=O)c2sccc2Cl)c1 [Example 62, 3-chloro-N-(2-((3-(3′-(dimethylcarbamoyl)-4-methoxy-[1,1′-biphenyl]-3-ylsulfonamido)phenyl)amino)ethyl)thiophene-2-carboxamide] | 102 | 99 | 71 | 92 | 94 | – | – | – |
| COc1cccc(C(=O)NCCNc2cccc(NS(=O)(=O)c3cc(-c4cc(Cl)ccc4Cl)ccc3OC)c2)c1 [Example 26, N-(2-((3-(2′,5′-dichloro-4-methoxy-[1,1′-biphenyl]-3-ylsulfonamide)phenyl)amino)ethyl)-3-methoxybenzamide] | – | – | – | – | – | <5 | 5 | 29 |
| COc1ccc(C(=O)NCCNc2cccc(NS(=O)(=O)c3cc(-c4cccc(C(=O)N(C)C)c4)ccc3OC)c2)cc1 [Example 44, 4′-methoxy-3′-(N-(3-((2-(4-methoxybenzamido)ethyl)amino)phenyl)sulfamoyl)-N,N-dimethyl-[1,1′-biphenyl]-3-carboxamide] | 1050 | 94 | <5 | 28 | 94 | – | – | – |
| COc1cccc(C(=O)NCCNc2cccc(NS(=O)(=O)c3cc(-c4cc(Cl)cc(Cl)c4)ccc3OC)c2)c1 [Example 28, N-(2-((3-(3′,5′-dichloro-4-methoxy-[1,1′-biphenyl]-3-ylsulfonamide)phenyl)amino)ethyl)-3-methoxybenzamide] | – | – | – | – | – | <5 | <5 | <5 |
| COc1ccc(-c2cccc(C(=O)N(C)C)c2)cc1S(=O)(=O)Nc1cccc(NCCNC(=O)c2cccc(F)c2)c1 [Example 52, 3′-(N-(3-((2-(3-fluorobenzamido)ethyl)amino)phenyl)sulfamoyl)-4′-methoxy-N,N-dimethyl-[1,1′-biphenyl]-3-carboxamide] | 783 | 84 | 40 | 79 | 64 | – | – | – |
| COc1ccc(-c2cccc(C(=O)N(C)C)c2)cc1S(=O)(=O)Nc1cccc(NCCNC(=O)c2occc2C)c1 [Example 68, N-(2-((3-(3′-(dimethylcarbamoyl)-4-methoxy-[1,1′-biphenyl]-3-ylsulfonamido)phenyl)amino)ethyl)-3-methylfuran-2-carboxamide] | – | – | 42 | 86 | 74 | – | – | – |
| COc1ccc(-c2cccc(C(=O)N(C)C)c2)cc1S(=O)(=O)Nc1cccc(NCCNC(=O)c2cc(F)cc(F)c2)c1 [Example 54, 3′-(N-(3-((2-(3,5-difluorobenzamido)ethyl)amino)phenyl)sulfamoyl)-4′-methoxy-N,N-dimethyl-[1,1′-biphenyl]-3-carboxamide] | 630 | 94 | 33 | 168 | 126 | – | – | – |
| COc1cccc(C(=O)NCCNc2cccc(NS(=O)(=O)c3cc(-c4cccc(C(=O)N5CCCC5)c4)ccc3OC)c2)c1 [Example 86, 3-methoxy-N-(2-((3-(4-methoxy-3′-(pyrrolidine-1-carbonyl)-[1,1′-biphenyl]-3-ylsulfonamido)phenyl)amino)ethyl)benzamide] | – | – | 10 | 89 | 81 | – | – | – |

Next, values leading:

| EC50 [1] [nM] | Emax [2] [%] | Response (0.1 μM (%)) [3] [%] | Response (1.0 μM (%)) [4] [%] | Response (10 μM (%)) [5] [%] | Response (0.1 μM (%)) [6] [%] | Response (1.0 μM (%)) [7] [%] | Response (10 μM (%)) [8] [%] | SMILES |
| --- | --- | --- | --- | --- | --- | --- | --- | --- |
| – | – | 42 | 91 | 82 | – | – | – | COCCN(C)C(=O)c1cccc(-c2ccc(OC)c(S(=O)(=O)Nc3cccc(NCCNC(=O)c4ccccc4OC)c3)c2)c1 [Example 77, 4′-methoxy-3′-(N-(3-((2-(2-methoxybenzamido)ethyl)amino)phenyl)sulfamoyl)-N-(2-methoxyethyl)-N-methyl-[1,1′-biphenyl]-3-carboxamide] |
| – | – | 8 | 37 | 113 | – | – | – | COc1ccccc1C(=O)NCCNc1cccc(NS(=O)(=O)c2cc(-c3cccc(NCC(C)C)c3)ccc2OC)c1 [Example 38, N-(2-((3-(3′-(isobutylamino)-4-methoxy-[1,1′-biphenyl]-3-ylsulfonamide)phenyl)amino)ethyl)-2-methoxybenzamide] |
| – | – | – | – | – | <5 | <5 | <5 | COc1ccccc1C(=O)NCCNc1cccc(NS(=O)(=O)c2cc(-c3c(F)cccc3OC)ccc2OC)c1 [Example 23, N-(2-((3-(2′-fluoro-4,6′-dimethoxy-[1,1′-biphenyl]-3-ylsulfonamide)phenyl)amino)ethyl)-2-methoxybenzamide] |
| – | – | – | – | – | <5 | <5 | 7 | COc1ccc(-c2ccccc2F)cc1S(=O)(=O)Nc1cccc(NCCNC(=O)c2ccccc2O)c1 [Example 6, N-(2-((3-(2′-fluoro-4-methoxy-[1,1′-biphenyl]-3-ylsulfonamide)phenyl)amino)ethyl)-2-hydroxybenzamide] |
| 268 | 88 | <5 | 61 | 88 | – | – | – | COc1ccccc1C(=O)NCCNc1cccc(NS(=O)(=O)c2cc(-c3cccnc3)ccc2OC)c1 [Example 96, 2-methoxy-N-(2-((3-(2-methoxy-5-(pyridin-3-yl)phenylsulfonamido)phenyl)amino)ethyl)benzamide] |
| – | – | <5 | 27 | 102 | – | – | – | COc1ccccc1C(=O)NCCNc1cccc(NS(=O)(=O)c2cc(-c3cccc(CO)c3)ccc2OC)c1 [Example 39, N-(2-((3-(3′-(hydroxymethyl)-4-methoxy-[1,1′-biphenyl]-3-ylsulfonamide)phenyl)amino)ethyl)-2-methoxybenzamide] |
| 77 | 87 | 49 | 87 | 76 | – | – | – | COc1ccccc1C(=O)NCCNc1cccc(NS(=O)(=O)c2cc(-c3cccc(C(=O)N4CCCC4)c3)ccc2OC)c1 [Example 75, 2-methoxy-N-(2-((3-(4-methoxy-3′-(pyrrolidine-1-carbonyl)-1-[1,1′-biphenyl]-3-ylsulfonamide)phenyl)amino)ethyl)benzamide] |
| – | – | – | – | – | 6 | 67 | 103 | COc1cccc(C(=O)NCCNc2cccc(NS(=O)(=O)c3cc(-c4cccc(OC)c4)ccc3OC)c2)c1 [Example 31, N-(2-((3-(3′,4-dimethoxy-[1,1′-biphenyl]-3-ylsulfonamide)phenyl)amino)ethyl)-3-methoxybenzamide] |
| – | – | <5 | 71 | 76 | – | – | – | COc1ccc(-c2cccc(C(=O)N(C)C)c2)cc1S(=O)(=O)Nc1cccc(NCCNC(=O)c2cccnc2Cl)c1 [Example 50, 2-chloro-N-(2-((3-(3′-(dimethylcarbamoyl)-4-methoxy-[1,1′-biphenyl]-3-ylsulfonamido)phenyl)amino)ethyl)nicotinamide] |
| – | – | 24 | 95 | 98 | – | – | – | COc1ccccc1C(=O)NCCNc1cccc(NS(=O)(=O)c2cc(-c3cccc(C(=O)N(C)C(C)(C)C)c3)ccc2OC)c1 [Example 76, N-(tert-butyl)-4′-methoxy-3′-(N-(3-((2-(2-methoxybenzamido)ethyl)amino)phenyl)sulfamoyl)-N-methyl-[1,1′-biphenyl]-3-carboxamide] |
| 33 | 57 | 70 | 107 | 115 | – | – | – | COc1cccc(C(=O)NCCNc2cccc(NS(=O)(=O)c3cc(-c4cccc(C(=O)N(C)C)c4)ccc3OC)c2)c1 [Example 41, 4′-methoxy-3′-(N-(3-((2-(3-methoxybenzamido)ethyl)amino)phenyl)sulfamoyl)-N,N-dimethyl-[1,1′-biphenyl]-3-carboxamide] |
| – | – | – | – | – | <5 | 21 | 57 | COc1ccccc1C(=O)NCCNc1cccc(NS(=O)(=O)c2cc(-c3ccccc3F)ccc2OC)c1 [Example 1, N-(2-((3-(2′-fluoro-4-methoxy-[1,1′-biphenyl]-3-ylsulfonamide)phenyl)amino)ethyl)-2-methoxybenzamide] |
